In US7183260B2, “C-terminal modified oxamyl dipeptides as inhibitors of the ICE/ced-3 family of cysteine proteases” (Idun Pharmaceuticals, Inc., priority 1998, dated 2007):
Where a SMILES comes first, the peptide text is derived from it. The star is where a group is joined. Cbz = O=C(OCc1ccccc1)*

Columns and labels:
Format in all cases: biochemical
mICE = molecular target: T1, mICE (Mus musculus, UniProt P29452); assay: Fluorescence enzyme assay, determination of IC50 values (ICE); conditions: recombinant enzyme, 30 min preincubation, substrate Acetyl-Tyr-Val-Ala-Asp-AMC, room temperature
T1 sequence (P29452 123-296 limits assumed): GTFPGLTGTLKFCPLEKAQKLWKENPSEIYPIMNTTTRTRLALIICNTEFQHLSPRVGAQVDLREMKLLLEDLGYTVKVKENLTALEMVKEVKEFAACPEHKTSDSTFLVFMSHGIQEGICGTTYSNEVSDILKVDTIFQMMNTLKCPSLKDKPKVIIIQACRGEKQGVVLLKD
T1 sequence (P29452 315-402 limits assumed): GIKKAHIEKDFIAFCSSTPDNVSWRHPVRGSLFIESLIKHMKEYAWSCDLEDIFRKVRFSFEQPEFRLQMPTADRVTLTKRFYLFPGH
Method: (§1) Fluorescence enzyme assays detecting the activity of the compounds of Formula I utilizing the recombinant ICE and CPP32 enzymes are performed essentially according to Thornberry et al. (Nature, 356:768:774 (1992)) and Nicholson et al. (Nature, 376:37–43 (1995)) respectively, (herein incorporated by reference) in 96 well microtiter plates. The substrate is Acetyl-Tyr-Val-Ala-Asp-amino-4-methylcoumarin (AMC) for the ICE assay and Acetyl-Asp-Glu-Val-Asp-amino-4-methylcoumarin for the CPP32, Mch2, Mch3 and Mch5 assays. Enzyme reactions are run in ICE buffer (25 mM HEPES, 1 mM EDTA, 0.1% CHAPS, 10% sucrose, pH 7.5) containing 2 mM DTT at room temperature in duplicate.
(§2) The enzyme and the compound of Formula I to be assayed are allowed to preincubate in the microtitre plate wells for 30 minutes at room temperature prior to the addition of substrate to initiate the reaction. Fluorescent AMC product formation is monitored for one hour at room temperature by measuring the fluorescence emission at 460 nm using an excitation wavelength of 360 nm.
(§3) The reference compound for this assay was Cbz-ValAlaAsp-H and the values are denoted in Table 1 as “Reference”.

CPP32 = molecular target: T2, CPP32 (Homo sapiens, UniProt P42574); assay: Fluorescence enzyme assay, determination of IC50 values (CPP32); conditions: recombinant enzyme, 30 min preincubation, substrate Acetyl-Asp-Glu-Val-Asp-AMC, room temperature
T2 sequence (P42574 29-175 limits assumed): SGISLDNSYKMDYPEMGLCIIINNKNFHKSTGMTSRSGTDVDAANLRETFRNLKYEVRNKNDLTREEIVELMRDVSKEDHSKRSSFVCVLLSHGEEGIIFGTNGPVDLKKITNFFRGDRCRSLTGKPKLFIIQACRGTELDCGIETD
T2 sequence (P42574 176-277 limits assumed): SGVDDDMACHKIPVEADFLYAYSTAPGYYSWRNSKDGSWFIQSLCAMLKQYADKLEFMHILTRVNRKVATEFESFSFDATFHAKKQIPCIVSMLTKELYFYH
Method: as §1, §2, §3

MCH-2 = molecular target: T3, MCH-2 (Homo sapiens, UniProt P55212); assay: Fluorescence enzyme assay, determination of IC50 values (Mch2); conditions: 30 min preincubation, substrate Acetyl-Asp-Glu-Val-Asp-AMC, room temperature
T3 sequence (P55212 24-179 limits assumed): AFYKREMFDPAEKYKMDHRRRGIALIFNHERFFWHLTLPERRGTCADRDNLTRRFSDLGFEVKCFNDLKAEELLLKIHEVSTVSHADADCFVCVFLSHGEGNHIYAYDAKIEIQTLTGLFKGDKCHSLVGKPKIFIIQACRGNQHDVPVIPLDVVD
T3 sequence (P55212 194-293 limits assumed): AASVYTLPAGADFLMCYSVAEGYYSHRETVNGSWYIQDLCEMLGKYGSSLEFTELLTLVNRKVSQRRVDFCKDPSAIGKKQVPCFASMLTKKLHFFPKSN
Method: as §1, §2, §3

MCH-3 = molecular target: T4, MCH-3 (Homo sapiens, UniProt P55210); assay: Fluorescence enzyme assay, determination of IC50 values (Mch3); conditions: 30 min preincubation, substrate Acetyl-Asp-Glu-Val-Asp-AMC, room temperature
T4 sequence (P55210 24-198 limits assumed): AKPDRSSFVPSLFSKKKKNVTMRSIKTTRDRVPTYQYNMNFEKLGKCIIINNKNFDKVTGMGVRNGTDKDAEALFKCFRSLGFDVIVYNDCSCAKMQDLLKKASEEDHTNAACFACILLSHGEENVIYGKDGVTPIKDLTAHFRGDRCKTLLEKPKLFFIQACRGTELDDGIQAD
T4 sequence (P55210 207-303 limits assumed): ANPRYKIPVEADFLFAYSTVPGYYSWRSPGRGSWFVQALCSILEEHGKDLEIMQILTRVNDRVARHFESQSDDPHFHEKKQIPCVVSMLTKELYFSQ
Method: as §1, §2, §3

MCH-5 = MCH-5 (Homo sapiens, UniProt Q14790); assay: Fluorescence enzyme assay, determination of IC50 values (Mch5); conditions: 30 min preincubation, substrate Acetyl-Asp-Glu-Val-Asp-AMC, room temperature
Sequence of MCH-5 (Q14790 217-374 limits assumed, species assumed): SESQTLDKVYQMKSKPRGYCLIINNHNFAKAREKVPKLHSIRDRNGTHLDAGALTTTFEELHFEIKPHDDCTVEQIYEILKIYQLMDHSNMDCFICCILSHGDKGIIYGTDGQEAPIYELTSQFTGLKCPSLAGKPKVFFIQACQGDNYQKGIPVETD
Sequence of MCH-5 (Q14790 385-479 limits assumed, species assumed): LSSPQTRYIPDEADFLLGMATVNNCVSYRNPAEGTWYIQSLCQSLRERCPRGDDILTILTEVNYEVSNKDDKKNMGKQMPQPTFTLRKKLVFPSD
Method: The substrate is Acetyl-Tyr-Val-Ala-Asp-amino-4-methylcoumarin (AMC) for the ICE assay and Acetyl-Asp-Glu-Val-Asp-amino-4-methylcoumarin for the CPP32, Mch2, Mch3 and Mch5 assays. Enzyme reactions are run in ICE buffer (25 mM HEPES, 1 mM EDTA, 0.1% CHAPS, 10% sucrose, pH 7.5) containing 2 mM DTT at room temperature in duplicate.
as §2, §3

Row | Structure (SMILES) | IC50 (mICE) [µM] | IC50 (CPP32) [µM] | IC50 (MCH-2) [µM] | IC50 (MCH-3) [µM] | IC50 (MCH-5) [µM]
1 | CC(C)C[C@H](NC(=O)C(=O)Nc1cccc2ccccc12)C(=O)N[C@H](C=O)CC(=O)O [Example 1, (3S)-3-[N-(N′-(1-NAPHTHYL)OXAMYL)LEUCINYL]AMINO-4-OXOBUTANOIC ACID] | 0.027 | 0.01 | 1.5 | 0.267 | 0.179
2 | CC(C)[C@H](NC(=O)OCc1ccccc1)C(=O)N[C@@H](C)C(=O)N[C@H](C=O)CC(=O)O [reference, Cbz-ValAlaAsp-H, reference compound] (Cbz-Val-Ala-Asp-aldehyde) | 0.064 | 47 | > 10 | > 10 | 2.96
